What was measured:
[1] = system: Arabidopsis wildtype control plants; assay: Arabidopsis growth inhibition in 48-well plates, wildtype control; type: in vivo, Arabidopsis thaliana; conditions: plant growth IC50 divided by that of wildtype plants
Experimental: Depending on the species, the plants are kept at 10-25° C. or 20-35° C. The test period extends over 3 weeks. During this time, the plants are tended and their response to the individual treatments is evaluated. Herbicide injury evaluations are taken at 2 and 3 weeks after treatment. Plant injury is rated on a scale of 0 to 9, 0 being no injury and 9 being complete death. Tolerance to coumarone-derivative herbicides can also be assessed in Arabidopsis. In this case transgenic Arabidopsis thaliana plants are assayed for improved tolerance to coumarone-derivative herbicides in 48-well plates. Seeds are surface sterilized by stirring for 5 min in ethanol+water (70+30 by volume), rinsing one time with ethanol+water (70+30 by volume) and two times with a sterile, deionized water. The seeds are resuspended in 0.1% agar dissolved in water (w/v). Four to five seeds per well are plated on solid nutrient medium consisting of half-strength Murashige Skoog nutrient solution, pH 5.8 (Murashige and Skoog (1962) Physiologia Plantarum 15: 473-497). […] Seven to ten days after seeding growth inhibition is evaluated by comparison to wild type plants. Tolerance factor is calculated by dividing the plant growth IC50 value of transgenic plants containing a HPPD and/or HST sequence by that of wildtype plants. […]

[2] = target: T1, Hordeum HPPD variant G407C (Hordeum vulgare, UniProt O48604, A164G/G407C/R146V/R147D/R148G); assay: HPPD activity assay, Hordeum HPPD mutant G407C; type: biochemical; conditions: normalized on wildtype
T1 construct: His6; made in house; host or cells: E. coli BL21 (DE3)
Experimental: (§1) HPPD produces homogentisic acid and CO2 from 4-hydroxyphenylpyruvate (4-HPP) and O2. The activity assay for HPPD is based on the analysis of homogentisic acid by reversed phase HPLC.
The assay mixture can contain 150 mM potassium phosphate buffer pH 7.0, 50 mM L-ascorbic acid, 1 μM FeSO4 and 7 μg of purified enzyme in a total volume of 1 ml. Inhibitors are dissolved in DMSO (dimethylsulfoxide) to a concentration of 20 mM or 0.5 mM, respectively. From this stock solution serial five-fold dilutions are prepared in DMSO, which are used in the assay. The respective inhibitor solution accounts for 1% of the assay volume. Thus, final inhibitor concentrations range from 200 μM to 2.5 nM or from 5 μM to 63 pM, respectively. After a preincubation of 30 min the reaction is started by adding 4-HPP to a final concentration of 0.1 mM. […]
Inhibitors are dissolved in DMSO (dimethylsulfoxide) to a concentration of 0.5 mM. […] IC50 values are calculated using non-linear regression.
Purified, mutant HPPD enzymes are obtained by the methods described above. […] Apparent michaelis constants (Km) and maximal reaction velocities (Vmax) are calculated by non-linear regression with the software GraphPad Prism 5 (GraphPad Software, La Jolla, USA) using a substrate inhibition model. […] Weighted means (by standard error) of Km and […] values are calculated from at least three independent experiments. […]

[3] = target: T2, Hordeum HPPD (SEQ ID: 1/2) (Hordeum vulgare, UniProt O48604, A164G/R146V/R147D/R148G); assay: HPPD activity assay, wildtype Hordeum HPPD; type: biochemical; conditions: for Ki: Cheng-Prusoff from IC50, read-out: Ki (dissociation constant); for TI (tolerance index): not normalized
T2 construct: His6; made in house; host or cells: E. coli BL21 (DE3)
Experimental: as §1
The assay mixture can contain 150 mM potassium phosphate buffer pH 7.0, 50 mM L-ascorbic acid, 1 μM FeSO4 and 7 μg of purified enzyme in a total volume of 1 ml. Inhibitors are dissolved in DMSO (dimethylsulfoxide) to a concentration of 20 mM or 0.5 mM, respectively. From this stock solution serial five-fold dilutions are prepared in DMSO, which are used in the assay. The respective inhibitor solution accounts for 1% of the assay volume. Thus, final inhibitor concentrations range from 200 μM to 2.5 nM or from 5 μM to 63 pM, respectively. After a preincubation of 30 min the reaction is started by adding 4-HPP to a final concentration of 0.1 mM. The reaction is allowed to proceed for 120 min at room temperature. The reaction is stopped by addition of 100 μl of 4.5 M phosphoric acid.
Activities are normalized by setting the uninhibited enzyme activity to 100%. […] values are calculated using non-linear regression.
The assay mixture can contain 150 mM potassium phosphate buffer pH 7.0, 50 mM L-ascorbic acid, 100 μM Catalase (Sigma-Aldrich), 1 μM FeSO4 and 0.2 units of purified HPPD enzyme in a total volume of 505 μl. 1 unit is defined as the amount of enzyme that is required to produce 1 nmol of HGA per minute at 20° C.
Inhibitors are dissolved in DMSO (dimethylsulfoxide) to a concentration of 0.5 mM. From this stock solution serial five-fold dilutions are prepared in DMSO, which are used in the assay. The respective inhibitor solution accounts for 1% of the assay volume. Thus, final inhibitor concentrations range from 5 μM to 320 pM, respectively. Activities are normalized by setting the uninhibited enzyme activity to 100%. IC50 values are calculated using non-linear regression.
Using methods which are described in the above examples or well known in the art, purified, recombinant wildtype HPPD enzymes are characterized with respect to their kinetic properties and sensitivity towards HPPD inhibiting herbicides. Apparent michaelis constants (Km) and maximal reaction velocities (Vmax) are calculated by non-linear regression with the software GraphPad Prism 5 (GraphPad Software, La Jolla, USA) using a substrate inhibition model. Apparent kcat values are calculated from Vmax assuming 100% purity of the enzyme preparation. Weighted means (by standard error) of Km and […] values are calculated from at least three independent experiments. The Cheng-Prusoff equation for competitive inhibition (Cheng, Y. C.; Prusoff, W. H. Biochem Pharmacol 1973, 22, 3099-3108) is used to calculate dissociation constants (Ki).
Field performance of the HPPD enzyme, which is used as a herbicide tolerance trait may depend not only on its lack of sensitivity towards HPPD inhibiting herbicides but also on its activity. To assess the potential performance of a herbicide tolerance trait a tolerance index (TI) is calculated using the following formula: […]
Easy comparison and ranking of each trait is enabled by normalizing every tolerance index on Hordeum HPPD.

[4] = Hordeum HPPD Wild-type, normalized on wildtype (Table 10)
[5] = Hordeum HPPD, normalized on Hordeum HPPD (Table 7)

T2 sequence (O48604 whole entry R146V/R147D/R148G/A164G): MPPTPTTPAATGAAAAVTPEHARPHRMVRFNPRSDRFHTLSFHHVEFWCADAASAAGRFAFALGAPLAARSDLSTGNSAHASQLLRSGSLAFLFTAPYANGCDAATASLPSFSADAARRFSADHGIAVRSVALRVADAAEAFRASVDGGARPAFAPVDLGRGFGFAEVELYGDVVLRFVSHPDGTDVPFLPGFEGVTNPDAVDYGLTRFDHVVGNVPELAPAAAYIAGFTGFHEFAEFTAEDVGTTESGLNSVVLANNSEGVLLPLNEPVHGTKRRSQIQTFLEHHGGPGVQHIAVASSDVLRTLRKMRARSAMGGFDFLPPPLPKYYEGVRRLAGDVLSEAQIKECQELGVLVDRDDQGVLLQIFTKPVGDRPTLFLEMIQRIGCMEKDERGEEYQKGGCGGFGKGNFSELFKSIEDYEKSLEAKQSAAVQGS
T1 sequence (O48604 whole entry R146V/R147D/R148G/A164G/G407C): as the sequence (O48604 whole entry R146V/R147D/R148G/A164G) above, with G407C counted along it

SMILES	Tolerance factor [1]	Normalized tolerance index (TI) [2]	Normalized tolerance index (TI) [3, 4]	Ki ([3]; Hordeum HPPD) [nM]	Normalized tolerance index (TI) [3, 5]	TI (tolerance index) ([3]; Hordeum HPPD)
CC1=NOC(c2c(Cl)ccc(C3=C(O)c4ncccc4N(CC(F)F)S3(=O)=O)c2Cl)C1 (stereo not drawn) [Inhibitor 1, 3-[2,4-dichloro-3-(3-methyl-4,5-dihydroisoxazol-5-yl)phenyl]-1-(2,2-difluoroethyl)-2,2-dioxo-pyrido[3,2-c]thiazin-4-ol]	1	1.6	1	2.7	1	1.19E−3
O=S1(=O)C(c2c(Cl)cc(Cl)nc2Cl)=C(O)c2ncccc2N1CC(F)F [Inhibitor 2, 1-(2,2-difluoroethyl)-2,2-dioxo-3-(2,4,6-trichloro-3-pyridyl)pyrido[3,2-c]thiazin-4-ol]	1	3.2	1	2.6	1	1.13E−3
